Measured values taken from patent publication US20230265151A1, “GIP/GLP1 CO-AGONIST COMPOUNDS” (priority 2020, published 2023).
Where two headings read alike, the source gives them in different places. *1 amine or outer side, *2 acyl side, *3 side chain or, on linkers, in order; H or OH if unused. Where a SMILES comes first, the peptide text is derived from it. Side-chain parts run from the residue outwards. [ ]: non-standard residue; d: D form. The star is where a group is joined. αMePhe(2-F) = C[C@](N)(Cc1ccccc1F)C(=O)O; γGlu = O=C(O)[C@H](CCC(=O)[*:2])N[*:1]; C14 diacid = O=C(O)CCCCCCCCCCCCC(=O)*; αMeY = C[C@](N)(Cc1ccc(O)cc1)C(=O)O; αMeL = CC(C)C[C@](C)(N)C(=O)O; Orn = NCCC[C@H](N)C(=O)O; AEEA = NCCOCCOCC(=O)O; Aib = CC(C)(N)C(=O)O

Experiments:
Assay type in all cases: cell-based
[1] = target: T1, hGIPR (Homo sapiens, UniProt P48546); test: Functional cAMP formation (HTRF) in HEK-293 clonal cells expressing hGIPR, 0.1% bovine casein, without or with 1.0% human serum albumin; details: 37° C.; for Emax: percent of maximal response to GIP(1-42)NH2, read-out: hGIPR Emax, % ± SEM; for EC50: cAMP, 0.1% bovine casein (no human serum albumin), geometric mean, read-out: hGIPR EC50, nM (SEM, n)
T1 construct: expressed in transfected cells
T1 sequence (P48546 22-466): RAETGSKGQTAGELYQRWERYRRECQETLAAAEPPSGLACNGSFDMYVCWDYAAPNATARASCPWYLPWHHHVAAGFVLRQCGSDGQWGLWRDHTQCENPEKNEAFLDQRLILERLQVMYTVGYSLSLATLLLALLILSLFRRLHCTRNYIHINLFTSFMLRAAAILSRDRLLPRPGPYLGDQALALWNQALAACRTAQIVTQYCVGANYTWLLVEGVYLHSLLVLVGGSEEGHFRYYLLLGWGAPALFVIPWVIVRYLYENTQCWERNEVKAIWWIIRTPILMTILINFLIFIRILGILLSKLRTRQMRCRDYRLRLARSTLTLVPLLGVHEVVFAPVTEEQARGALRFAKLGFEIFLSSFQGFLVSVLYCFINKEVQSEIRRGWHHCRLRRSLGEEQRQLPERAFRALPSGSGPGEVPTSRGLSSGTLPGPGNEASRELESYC
Procedure, shortened: (§1)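 Cells were stimulated with peptide for 30 min at 37° C, then intracellular cAMP was measured by competitive HTRF (665/620 nm ratio) and converted to nM using a cAMP standard curve. Relative EC50 and Emax came from four-parameter logistic fits of percent maximal response against peptide concentration.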

[2] = target: T2, hGCGR (Homo sapiens, UniProt P47871); test: Functional cAMP formation (HTRF) in HEK-293 clonal cells expressing hGCGR, 0.1% bovine casein, without or with 1.0% human serum albumin; details: 37° C., geometric mean, read-out: hGCGR EC50, nM (SEM, n)
T2 construct: expressed in transfected cells
Procedure, shortened: as §1

[3] = target: hGLP-1R (Homo sapiens, UniProt P43220); test: Functional cAMP formation (HTRF) in HEK-293 clonal cells expressing hGLP-1R, 0.1% bovine casein, without or with 1.0% human serum albumin; design: expressed in transfected cells; details: 37° C.; for Emax: percent of maximal response to GLP-1(7-36)NH2, read-out: hGLP-1R Emax, % ± SEM; for EC50: geometric mean, read-out: hGLP-1R EC50, nM (SEM, n)
Procedure, shortened: as §1

[4] = HEK293, 0.1% bovine casein and 1.0% human serum albumin
[5] = HEK293, cAMP, 0.1% bovine casein, arithmetic mean
[6] = 0.1% bovine casein and 1.0% human serum albumin
[7] = cAMP, 0.1% bovine casein (no human serum albumin)

Sequence of hGLP-1R (P43220 24-463): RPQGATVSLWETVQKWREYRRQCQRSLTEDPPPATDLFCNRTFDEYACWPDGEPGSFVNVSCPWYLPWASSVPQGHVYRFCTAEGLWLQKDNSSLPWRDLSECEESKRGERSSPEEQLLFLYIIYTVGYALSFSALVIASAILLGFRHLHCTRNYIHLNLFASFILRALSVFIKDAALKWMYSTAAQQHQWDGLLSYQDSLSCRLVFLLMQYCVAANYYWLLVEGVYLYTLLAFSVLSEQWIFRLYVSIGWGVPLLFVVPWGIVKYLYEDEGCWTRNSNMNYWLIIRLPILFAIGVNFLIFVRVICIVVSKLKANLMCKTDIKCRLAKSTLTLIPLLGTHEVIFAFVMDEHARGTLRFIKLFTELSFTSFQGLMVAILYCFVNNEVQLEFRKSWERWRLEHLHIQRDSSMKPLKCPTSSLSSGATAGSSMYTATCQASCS
T2 sequence (P47871 26-477): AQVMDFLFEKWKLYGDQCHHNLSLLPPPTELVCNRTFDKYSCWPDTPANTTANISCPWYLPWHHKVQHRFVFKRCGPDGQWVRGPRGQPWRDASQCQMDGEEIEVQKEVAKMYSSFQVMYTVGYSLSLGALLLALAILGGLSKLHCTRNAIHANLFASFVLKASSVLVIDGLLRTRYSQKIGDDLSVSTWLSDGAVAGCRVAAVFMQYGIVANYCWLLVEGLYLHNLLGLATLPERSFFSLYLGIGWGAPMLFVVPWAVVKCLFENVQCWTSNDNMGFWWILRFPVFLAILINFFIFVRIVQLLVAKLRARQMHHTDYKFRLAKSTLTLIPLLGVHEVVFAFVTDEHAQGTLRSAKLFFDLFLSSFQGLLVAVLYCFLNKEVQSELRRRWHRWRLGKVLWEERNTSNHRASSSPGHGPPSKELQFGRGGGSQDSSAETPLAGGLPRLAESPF

Structure (SMILES) | Emax [1, 4] [%] | Emax [1, 5] [%] | EC50 [1] [nM] | EC50 [2, 6] [nM] | EC50 [2, 7] [nM] | Emax [3, 4] [%] | Emax [3, 5] [%] | EC50 [3, 7] [nM] | EC50 [3, 6] [nM]
CC[C@H](C)[C@H](NC(=O)[C@H](CCCN)NC(=O)[C@H](CC(=O)O)NC(=O)[C@H](CC(C)C)NC(=O)[C@](C)(CC(C)C)NC(=O)[C@@H](NC(=O)[C@H](CO)NC(=O)[C@H](Cc1ccc(OC)cc1)NC(=O)[C@H](CC(=O)O)NC(=O)[C@H](CO)NC(=O)[C@@H](NC(=O)[C@](C)(Cc1ccccc1F)NC(=O)[C@@H](NC(=O)CNC(=O)[C@H](CCC(=O)O)NC(=O)C(C)(C)NC(=O)[C@@H](N)Cc1ccc(O)cc1)[C@@H](C)O)[C@@H](C)O)[C@@H](C)CC)C(=O)N[C@@H](C)C(=O)N[C@@H](CCC(N)=O)C(=O)NC(C)(C)C(=O)N[C@@H](CCCCNC(=O)COCCOCCNC(=O)COCCOCCNC(=O)CC[C@H](NC(=O)CCCCCCCCCCCCC(=O)O)C(=O)O)C(=O)N[C@@H](Cc1ccccc1)C(=O)N[C@H](C(=O)N[C@H](CCC(=O)O)C(=O)N[C@@](C)(Cc1ccc(O)cc1)C(=O)N[C@@H](CC(C)C)C(=O)N[C@H](C(=O)N[C@@H](CCC(=O)O)C(=O)NCC(=O)NCC(=O)N1CCC[C@H]1C(=O)N[C@@H](CO)C(=O)N[C@@H](CO)C(=O)NCC(=O)N[C@@H](C)C(=O)N1CCC[C@H]1C(=O)N1CCC[C@H]1C(=O)N1CCC[C@H]1C(=O)N[C@@H](CO)C(=O)N[C@@H](CCCCNC(=O)COCCOCCNC(=O)COCCOCCNC(=O)CC[C@H](NC(=O)CCCCCCCCCCCCC(=O)O)C(=O)O)C(N)=O)[C@@H](C)CC)[C@@H](C)CC [Example 264] (H-Y[Aib]EGT[αMePhe(2-F)]TSDY(Me)SI[αMeL]LD[Orn]IAQ[Aib]K([AEEA-AEEA-γGlu-C14 diacid])FI[dE][αMeY]LIEGGPSSGAPPPSK([AEEA-AEEA-γGlu-C14 diacid])-NH2) | 84.4 | 114 | 0.0208 | > 9950 | > 9950 | 105 | 113 | 0.413 | 
CC[C@H](C)[C@H](NC(=O)[C@H](CC(C)C)NC(=O)[C@](C)(Cc1ccc(O)cc1)NC(=O)[C@@H](CCC(=O)O)NC(=O)[C@@H](NC(=O)[C@H](Cc1ccccc1)NC(=O)[C@H](CCCCNC(=O)COCCOCCNC(=O)COCCOCCNC(=O)CCCCCCCCCCCCC(=O)O)NC(=O)C(C)(C)NC(=O)[C@H](CCC(N)=O)NC(=O)[C@H](C)NC(=O)[C@H](CCCCNC(=O)COCCOCCNC(=O)COCCOCCNC(=O)CCCCCCCCCCCCC(=O)O)NC(=O)[C@H](CCCN)NC(=O)[C@H](CC(=O)O)NC(=O)[C@H](CC(C)C)NC(=O)[C@](C)(CC(C)C)NC(=O)[C@@H](NC(=O)[C@H](CO)NC(=O)[C@H](Cc1ccc(OC)cc1)NC(=O)[C@H](CC(=O)O)NC(=O)[C@H](CO)NC(=O)[C@@H](NC(=O)[C@](C)(Cc1ccccc1F)NC(=O)[C@@H](NC(=O)CNC(=O)[C@H](CCC(=O)O)NC(=O)C(C)(C)NC(=O)[C@@H](N)Cc1ccc(O)cc1)[C@@H](C)O)[C@@H](C)O)[C@@H](C)CC)[C@@H](C)CC)C(=O)N[C@@H](CCC(=O)O)C(=O)NCC(=O)NCC(=O)N1CCC[C@H]1C(=O)N[C@@H](CO)C(=O)N[C@@H](CO)C(=O)NCC(=O)N[C@@H](C)C(=O)N1CCC[C@H]1C(=O)N1CCC[C@H]1C(=O)N1CCC[C@H]1C(=O)N[C@@H](CO)C(N)=O [Example 265] (H-Y[Aib]EGT[αMePhe(2-F)]TSDY(Me)SI[αMeL]LD[Orn]K([AEEA-AEEA-C14 diacid])AQ[Aib]K([AEEA-AEEA-C14 diacid])FI[dE][αMeY]LIEGGPSSGAPPPS-NH2) | 96 | 100 | 0.0145 | > 9950 | > 9950 |  |  | 0.262 | 
CC[C@H](C)[C@H](NC(=O)[C@H](CC(C)C)NC(=O)[C@](C)(Cc1ccc(O)cc1)NC(=O)[C@@H](CCC(=O)O)NC(=O)[C@@H](NC(=O)[C@H](Cc1ccccc1)NC(=O)[C@H](CCC(=O)O)NC(=O)C(C)(C)NC(=O)[C@H](CCC(N)=O)NC(=O)[C@H](C)NC(=O)[C@H](CCCCNC(=O)COCCOCCNC(=O)COCCOCCNC(=O)CCCCCCCCCCCCC(=O)O)NC(=O)[C@H](CCCN)NC(=O)[C@H](CC(=O)O)NC(=O)[C@H](CC(C)C)NC(=O)[C@](C)(CC(C)C)NC(=O)[C@@H](NC(=O)[C@H](CO)NC(=O)[C@H](Cc1ccc(OC)cc1)NC(=O)[C@H](CC(=O)O)NC(=O)[C@H](CO)NC(=O)[C@@H](NC(=O)[C@](C)(Cc1ccccc1F)NC(=O)[C@@H](NC(=O)CNC(=O)[C@H](CCC(=O)O)NC(=O)C(C)(C)NC(=O)[C@@H](N)Cc1ccc(O)cc1)[C@@H](C)O)[C@@H](C)O)[C@@H](C)CC)[C@@H](C)CC)C(=O)N[C@@H](CCCCNC(=O)COCCOCCNC(=O)COCCOCCNC(=O)CCCCCCCCCCCCC(=O)O)C(=O)NCC(=O)NCC(=O)N1CCC[C@H]1C(=O)N[C@@H](CO)C(=O)N[C@@H](CO)C(=O)NCC(=O)N[C@@H](C)C(=O)N1CCC[C@H]1C(=O)N1CCC[C@H]1C(=O)N1CCC[C@H]1C(=O)N[C@@H](CO)C(N)=O [Example 266] (H-Y[Aib]EGT[αMePhe(2-F)]TSDY(Me)SI[αMeL]LD[Orn]K([AEEA-AEEA-C14 diacid])AQ[Aib]EFI[dE][αMeY]LIK([AEEA-AEEA-C14 diacid])GGPSSGAPPPS-NH2) | 82.7 | 93.2 | 0.0136 | > 9950 | > 9950 | 97.6 | 90.5 |  | 5.83
CC[C@H](C)[C@H](NC(=O)[C@H](CC(C)C)NC(=O)[C@](C)(Cc1ccc(O)cc1)NC(=O)[C@@H](CCC(=O)O)NC(=O)[C@@H](NC(=O)[C@H](Cc1ccccc1)NC(=O)[C@H](CCC(=O)O)NC(=O)C(C)(C)NC(=O)[C@H](CCC(N)=O)NC(=O)[C@H](C)NC(=O)[C@H](CCCCNC(=O)COCCOCCNC(=O)COCCOCCNC(=O)CCCCCCCCCCCCC(=O)O)NC(=O)[C@H](CCCN)NC(=O)[C@H](CC(=O)O)NC(=O)[C@H](CC(C)C)NC(=O)[C@](C)(CC(C)C)NC(=O)[C@@H](NC(=O)[C@H](CO)NC(=O)[C@H](Cc1ccc(OC)cc1)NC(=O)[C@H](CC(=O)O)NC(=O)[C@H](CO)NC(=O)[C@@H](NC(=O)[C@](C)(Cc1ccccc1F)NC(=O)[C@@H](NC(=O)CNC(=O)[C@H](CCC(=O)O)NC(=O)C(C)(C)NC(=O)[C@@H](N)Cc1ccc(O)cc1)[C@@H](C)O)[C@@H](C)O)[C@@H](C)CC)[C@@H](C)CC)C(=O)N[C@@H](CCC(=O)O)C(=O)NCC(=O)NCC(=O)N1CCC[C@H]1C(=O)N[C@@H](CO)C(=O)N[C@@H](CO)C(=O)NCC(=O)N[C@@H](C)C(=O)N1CCC[C@H]1C(=O)N1CCC[C@H]1C(=O)N1CCC[C@H]1C(=O)N[C@@H](CO)C(=O)N[C@@H](CCCCNC(=O)COCCOCCNC(=O)COCCOCCNC(=O)CCCCCCCCCCCCC(=O)O)C(N)=O [Example 267] (H-Y[Aib]EGT[αMePhe(2-F)]TSDY(Me)SI[αMeL]LD[Orn]K([AEEA-AEEA-C14 diacid])AQ[Aib]EFI[dE][αMeY]LIEGGPSSGAPPPSK([AEEA-AEEA-C14 diacid])-NH2) | 88.1 |  | 0.0162 | > 9950 | > 9950 |  |  | 0.271 | 
CC[C@H](C)[C@H](NC(=O)[C@H](CCCN)NC(=O)[C@H](CC(=O)O)NC(=O)[C@H](CC(C)C)NC(=O)[C@](C)(CC(C)C)NC(=O)[C@@H](NC(=O)[C@H](CO)NC(=O)[C@H](Cc1ccc(OC)cc1)NC(=O)[C@H](CC(=O)O)NC(=O)[C@H](CO)NC(=O)[C@@H](NC(=O)[C@](C)(Cc1ccccc1F)NC(=O)[C@@H](NC(=O)CNC(=O)[C@H](CCC(=O)O)NC(=O)C(C)(C)NC(=O)[C@@H](N)Cc1ccc(O)cc1)[C@@H](C)O)[C@@H](C)O)[C@@H](C)CC)C(=O)N[C@@H](C)C(=O)N[C@@H](CCC(N)=O)C(=O)NC(C)(C)C(=O)N[C@@H](CCCCNC(=O)COCCOCCNC(=O)COCCOCCNC(=O)CCCCCCCCCCCCC(=O)O)C(=O)N[C@@H](Cc1ccccc1)C(=O)N[C@H](C(=O)N[C@H](CCC(=O)O)C(=O)N[C@@](C)(Cc1ccc(O)cc1)C(=O)N[C@@H](CC(C)C)C(=O)N[C@H](C(=O)N[C@@H](CCC(=O)O)C(=O)NCC(=O)NCC(=O)N1CCC[C@H]1C(=O)N[C@@H](CO)C(=O)N[C@@H](CO)C(=O)NCC(=O)N[C@@H](C)C(=O)N1CCC[C@H]1C(=O)N1CCC[C@H]1C(=O)N1CCC[C@H]1C(=O)N[C@@H](CO)C(=O)N[C@@H](CCCCNC(=O)COCCOCCNC(=O)COCCOCCNC(=O)CCCCCCCCCCCCC(=O)O)C(N)=O)[C@@H](C)CC)[C@@H](C)CC [Example 268] (H-Y[Aib]EGT[αMePhe(2-F)]TSDY(Me)SI[αMeL]LD[Orn]IAQ[Aib]K([AEEA-AEEA-C14 diacid])FI[dE][αMeY]LIEGGPSSGAPPPSK([AEEA-AEEA-C14 diacid])-NH2) | 92.3 |  | 0.0265 | > 9950 | > 9950 |  | 112 |  | 
